The source of these data is patent US20240425475A1, “COMPOUND BASED ON QUINAZOLINE-SUBSTITUTED GLUTARIMIDE SKELETON AND USE THEREOF” (GLUETACS THERAPEUTICS (SHANGHAI) CO., LTD., priority 2022, published 2024).

In general, IC50 refers to the point on the concentration scale where inhibition reaches its midpoint.

Each structure is given as a SMILES string. A value given as a limit tells only on which side of the number the result lay.

In test [1] the test system is Human Burkitt's lymphoma cell line: Daudi. In words: Half inhibitory concentration (IC50) against tumor cells, CCK-8 cell viability. In kind it is cell-based. The following applies: 96 h treatment. The protocol: (§1) The tumor cells used herein were cultured in a cell culture medium listed in table 2 at 37° C. in an incubator with 5% CO2. Prior to experimentation, all cells used were correctly identified by STR profiling, and tested negative for mycoplasma through routine screenings. [table] Determination of Half Inhibitory Concentration (IC50) of the Compounds Against Tumor Cells: IC50 values of the compounds of the present disclosure (including the compounds in Table 1, and compounds of examples 1-104) were measured using the Meilun Cell Counting Kit-8 kit from Dalian Meilun Biotech Co., Ltd. Assay details are as follows: tumor cells were seeded in a 96-well plate at a density listed in Table 3. After 24 h, 100 μL of the inoculated cells were treated with 0.5 μl of the compounds of the present disclosure (including the compounds in Table 1, and compounds of examples 1-104) at 10 different successively decreasing concentrations (starting at the highest concentration of […]; 5-fold serial dilutions). After the cells were treated with the compounds of the present disclosure for a period of time, cell viability was measured according to the instructions provided with the CCK-8 kit. DMSO served as the negative control, and corresponding commercial immunomodulatory drug Avadomide (CC-122) was used as the positive control, both of which treated the cells using the same protocol as that of the compounds of the present disclosure. The growth inhibition of the compounds of the present disclosure on cells was plotted by Prism Graphpad software, and the IC50 values of the compounds of the present disclosure were calculated therefrom. [table] We tested the activities of the compounds of the present invention (including the compounds in Table 1 and Examples 1-104 compounds) in tumor cells through a dose-dependent manner. The cells were treated with the compounds of the present invention at 10 different successively decreasing concentrations (starting at the highest concentration of 10 μM; 5-fold serial dilutions) for 72 h or 96 h, and then the cell viability determination was performed in accordance with CCK-8 reagent operating instructions.

The test system of test [2] is Human diffuse large B-cell lymphoma cell line: TMD8. The test is described as above. In kind it is cell-based. The following applies: 96 h treatment. The protocol:
as §1

The subject of test [3] is Human dexamethasone-resistant multiple myeloma cell line: MM.1R. The description is as above. In kind it is cell-based. The following applies: MM.1R cells, 72 h treatment. The protocol:
as §1

Test [4] relates to Human B-lymphoma cell: Ramos. The description is as above. It counts as cell-based. The note with it: 96 h treatment. The protocol:
as §1

Test [5] deals with human Cereblon WT GST-tagged protein (Homo sapiens (Human), UniProt Q96SW2). In words: CRBN-binding affinity, CEREBLON BINDING kit (HTRF). The note with it: HTRF inhibitory activity, binding to CRBN. The text has this:
Determination of CRBN-Binding Affinity of Compounds
The CEREBLON BINDING kits (specification: 10,000 tests; product number: Catalog #64BDCRBNPEH; CISBIO company) was used to determine the CRBN binding ability of the compounds to be tested through a HTRF method (homogeneous time-resolved fluorescence). The specific methods are as follows: • 1. According to the instructions of the CEREBLON BINDING kits, the compounds to be tested of the present invention and lenalidomide were serially diluted using diluent #9 (1×) solution to obtain a final concentration of 2 μM for both the tested compounds and lenalidomide solution. • 2.2.5 μL of the above 2 μM of the tested compounds and lenalidomide solution, as well as the same volume of diluent #9 (1×) solution (solvent control group, Std0) were taken and added to each well of a 96-well plate, respectively. Then, 2.5 μL of (human Cereblon WT GST-tagged protein) solution was added to each well. Finally, 5 μL of the uniformly mixed thalidomide-Red reagent and GST Eu antibody working solution were added to each of the above wells. The final concentration of the tested compounds and lenalidomide in each well is 0.5 μM. • 3. The blank control wells were sequentially added with 2.5 μL of diluent #9 (1×) solution, 2.5 μL of PROTAC binding buffer, and 5 μL of uniformly mixed thalidomide-Red reagent and GST Eu antibody working solution. • 4. After sealing and incubating the solutions in the above wells at room temperature for 3 hours, the absorbance values at emission wavelengths of 620 nm and 665 nm were detected by the HTRF method using a Spark microplate reader (V3.1 SP1).
The corresponding CRBN binding inhibition rate was calculated using the following method: […]
Note: OD 665 nmcompound is the absorbance value of each well of the compounds to be tested of the present disclosure at an emission wavelength of 665 nm.
OD 620 nmcompound is the absorbance value of each well of the compounds to be tested of the present disclosure at an emission wavelength of 620 nm.
OD 665 nmcontrol is the absorbance value of the blank control well at an emission wavelength of 665 nm.
OD 620 nmcontrol is the absorbance value of the blank control well at an emission wavelength of 620 nm.
OD 665 nmstd0 is the absorbance value of the solvent control well at an emission wavelength of 665 nm.
OD 620 nmstd0 is the absorbance value of the solvent control well at an emission wavelength of 620 nm.

Test [6] has as its system Human multiple myeloma cells: MM.1S. In words: Half inhibitory concentration (IC50) against tumor cells, CCK-8 cell viability. It counts as cell-based. The note with it: MM1.S, MM.1S cells, 72 h treatment. The protocol:
as §1

Test [7] concerns Human cell line: Kasumi-1. Described as above. It counts as cell-based. The note with it: Kasumi-1 cells, 72 h treatment. The protocol: as §1
For test [8], the system named is Human colon cancer cell: SW620. The test is described as above. It counts as cell-based. The note with it: SW-620, 96 h treatment. The protocol: as §1

Sequence of human Cereblon WT GST-tagged protein (Q96SW2 whole entry): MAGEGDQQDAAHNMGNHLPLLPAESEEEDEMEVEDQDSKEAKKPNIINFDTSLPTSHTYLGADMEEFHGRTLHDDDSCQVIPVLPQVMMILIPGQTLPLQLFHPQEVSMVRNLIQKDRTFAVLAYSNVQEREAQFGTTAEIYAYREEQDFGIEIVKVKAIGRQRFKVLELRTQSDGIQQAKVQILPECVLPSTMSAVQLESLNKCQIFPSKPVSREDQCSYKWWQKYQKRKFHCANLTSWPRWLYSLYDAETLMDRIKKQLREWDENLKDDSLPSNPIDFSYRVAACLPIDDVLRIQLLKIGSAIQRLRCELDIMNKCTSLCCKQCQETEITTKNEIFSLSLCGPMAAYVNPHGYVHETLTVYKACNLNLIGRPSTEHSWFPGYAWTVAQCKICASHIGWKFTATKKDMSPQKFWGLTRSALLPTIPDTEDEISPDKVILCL

As for `Cc1nc2cccc(SCCCN3CCN(C(c4ccc(F)cc4)c4ccc(F)cc4)CC3)c2c(=O)n1C1CCC(=O)NC1=O` (stereo not shown) [GT-03387, 3-(5-((3-(4-(bis(4-fluorophenyl)methyl)piperazin-1-yl)propyl)thio)-2-methyl-4-oxoquinazolin-3(4H)-yl)piperidine-2,6-dione], the IC50 in test [1] came out at 286 nM; in test [2] it was 204 nM; in test [3] it was 276 nM; in test [4], 490 nM.

In the case of `Cc1nc2cccc(SCCCN3CCN(CC45CC6CC(CC(C6)C4)C5)CC3)c2c(=O)n1C1CCC(=O)NC1=O` (stereo not shown) [GT-03235, 3-(5-((3-(4-(((1s,3s)-adamantan-1-yl)methyl)piperazin-1-yl)propyl)thio)-2-methyl-4-oxoquinazolin-3(4H)-yl)piperidine-2,6-dione], the IC50 amounted to 2400 nM in test [5] and 398 nM in test [4].

For `Cc1nc2cccc(N)c2c(=O)n1C1CCC(=O)NC1=O` (stereo not shown) [CC-122, Avadomide, reference compound], the IC50 in test [1] was 1650 nM; in test [2] it was 890 nM; in test [6], 46.9 nM; in test [3] it was 464 nM; in test [7] it was greater than 10000 nM; in test [8], greater than 10000 nM. This compound also registered an IC50 in test [4] of 1330 nM.

As to `Cc1nc2cccc(SCCN3CCN(CCC45CC6CC(CC(C6)C4)C5)CC3)c2c(=O)n1C1CCC(=O)NC1=O` (stereo not shown) [GT-03305, 3-(5-((2-(4-(2-((3r,5r,7r)-adamantan-1-yl)ethyl)piperazin-1-yl)ethyl)thio)-2-methyl-4-oxoquinazolin-3(4H)-yl)piperidine-2,6-dione], the IC50 in test [5] is 1200 nM; in test [8] it was 717 nM.

Consider `Cc1nc2cccc(SCCCN3CCN(CCC45CC6CC(CC(C6)C4)C5)CC3)c2c(=O)n1C1CCC(=O)NC1=O` (stereo not shown) [GT-03306, 3-(5-((3-(4-(2-((3r,5r,7r)-adamantan-1-yl)ethyl)piperazin-1-yl)propyl)thio)-2-methyl-4-oxoquinazolin-3(4H)-yl)piperidine-2,6-dione], for which the IC50 in test [5] was found to be 1570 nM; in test [1] it was 44.9 nM; in test [2], 86.5 nM; in test [6], 29.3 nM; in test [3], 12.7 nM; in test [7], 22.3 nM. Also, the IC50 in test [8] is 18.6 nM; in test [4], 89.3 nM.

For `Cc1nc2cccc(SCCCN3CCN(C(c4ccc(Cl)cc4)c4ccc(Cl)cc4)CC3)c2c(=O)n1C1CCC(=O)NC1=O` (stereo not shown) [GT-03697, 3-(5-((3-(4-(bis(4-chlorophenyl)methyl)piperazin-1-yl)propyl)thio)-2-methyl-4-oxoquinazolin-3(4H)-yl)piperidine-2,6-dione], the IC50 came out at 546 nM in test [1], 204 nM in test [3], 694 nM in test [7] and 652 nM in test [4].

As for `Cc1nc2cccc(N3CC(C)N(CCC45CC6CC(CC(C6)C4)C5)C(C)C3)c2c(=O)n1C1CCC(=O)NC1=O` (stereo not shown) [GT-04246, 3-(5-(4-(2-((3r,5r,7r)-adamantan-1-yl)ethyl)-3,5-dimethylpiperazin-1-yl)-2-methyl-4-oxoquinazolin-3(4H)-yl)piperidine-2,6-dione], the IC50 was 413 nM in test [2] and 387 nM in test [8].

`Cc1nc2cccc(NCCN3CCN(CCC45CC6CC(CC(C6)C4)C5)CC3)c2c(=O)n1C1CCC(=O)NC1=O` (stereo not shown) [GT-03301, 3-(5-((2-(4-(2-((3r,5r,7r)-adamantan-1-yl)ethyl)piperazin-1-yl)ethyl)amino)-2-methyl-4-oxoquinazolin-3(4H)-yl)piperidine-2,6-dione]: the IC50 came out at 1720 nM in test [5]; 155 nM in test [1]; 186 nM in test [2]; 79.6 nM in test [6]; 32.8 nM in test [3]; 104 nM in test [7]. Moreover, the IC50 was 35.8 nM in test [8] and 165 nM in test [4].
